From article PMC8795568 (Proceedings of the National Academy of Sciences of the …, 2022)

Assays:
[1] = clinical; cited from earlier work
[2] = test system: NUT midline carcinoma and other solid cancers; conditions: patients, cited from earlier work
[3] = test system: midline nuclear protein in testis (NUT) carcinoma; conditions: phase IIb trial, closed; ref NCT02296476; cited from earlier work
Panc1 cells = assay: Cell growth assay; assay type: cell-based, human; conditions: Panc1, 1 μM each drug, until DMSO cells reached 100% confluence
several solid tumors = conditions: trial terminated; cited from earlier work

## COc1cc(OC)c2c(=O)[nH]c(-c3cc(C)c(OCCO)c(C)c3)nc2c1 [RVX000222]
[1]
  safety: improved safety threshold

## CCNC(=O)C[C@@H]1N=C(c2ccc(Cl)cc2)c2cc(OC)ccc2-n2c(C)nnc21 [GSK525762]
[2]; adverse effects
  rate of nausea: 40%
  rate of thrombocytopenia: 44%
[2]
  partial responses: 2 out of 10

## Cc1sc2c(c1C)C(c1ccc(Cl)cc1)=N[C@@H](CC(=O)Nc1ccc(O)cc1)c1nnc(C)n1-2 [MK-8628]
[3]
  clinical activity: lack of detectable clinical activity

## COc1ccc(CCc2nc3cc(-c4c(C)noc4C)ccc3n2C[C@H](C)N2CCOCC2)cc1Cl [SGC-CBP30]
Panc1 cells
  cell growth (confluence): marginal effect on cell growth

## CNC(=O)N1N=C(c2ccc(N3CCN(C)CC3)cc2)c2cc(OC)c(OC)cc2C[C@@H]1C [BAY1238097]
Several solid tumors
  dose-limiting toxicities: high rates of dose-limiting toxicities at subtherapeutic doses
